The supplement of paper PMC10307832

Assays:
Test in all cases: relative viability (nuclei count vs DMSO), 5 days (fraction); higher = more cells survive
Mirin + Trametinib = compound: N=C1NC(=O)/C(=C/c2ccc(O)cc2)S1 [Mirin] + CC(=O)Nc1cccc(-n2c(=O)n(C3CC3)c(=O)c3c(Nc4ccc(I)cc4F)n(C)c(=O)c(C)c32)c1 [Trametinib] (partner 0.02 µM)
Outline: (§1)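 One day after seeding in 1536-well plates, lung cancer cell lines were dosed by pin tool. Dosing was either single-drug or a fixed anchor-drug dose plus five library-drug doses (not always all listed) in √10 steps. After 5 days, nuclei were stained in one fix-and-stain step and counted on 4× images, and relative viability is the nuclei count of treated wells over that of vehicle wells, given as the median of duplicate plates.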

[1] = compound: CCn1c(-c2nonc2N)nc2cnc(Oc3cccc(NC(=O)c4ccc(OCCN5CCOCC5)cc4)c3)cc21 + Cc1nc(Nc2ncc(C(=O)Nc3c(C)cccc3Cl)s2)cc(N2CCN(CCO)CC2)n1 [Dasatinib] (partner 0.075 µM)
Outline: as §1

Mirin + Bortezomib = compound: N=C1NC(=O)/C(=C/c2ccc(O)cc2)S1 [Mirin] + CC(C)C[C@H](NC(=O)[C@H](Cc1ccccc1)NC(=O)c1cnccn1)B(O)O [Bortezomib] (partner 0.002 µM)
Outline: as §1

[2] = compound: CCC1=CN=CN=C1N2CCN(CC2)CC3=NC4=C(N3)C=C(C=C4)C(F)(F)F + Nc1ncn([C@H]2C[C@H](O)[C@@H](CO)O2)c(=O)n1 [Decitabine] (partner 2 µM)
Outline: as §1

NCI-H2087
relative viability (Mirin + Trametinib; first compound 0.25 µM): 0.292
relative viability (Mirin + Trametinib; first compound 0.7906 µM): 0.211
relative viability (Mirin + Trametinib; first compound 2.5 µM): 0.161
relative viability (Mirin + Trametinib; first compound 7.906 µM): 0.19
relative viability (Mirin + Trametinib; first compound 25 µM): 0.209
relative viability ([1]; first compound 0.04 µM): 0.866
relative viability ([1]; first compound 0.1265 µM): 0.673
relative viability ([1]; first compound 0.4 µM): 0.544
relative viability ([1]; first compound 1.265 µM): 0.558
relative viability ([1]; first compound 4 µM): 0.63
relative viability (Mirin + Bortezomib; first compound 0.25 µM): 0.885
relative viability (Mirin + Bortezomib; first compound 0.7906 µM): 0.826
relative viability (Mirin + Bortezomib; first compound 2.5 µM): 0.87
relative viability (Mirin + Bortezomib; first compound 7.906 µM): 0.924
relative viability (Mirin + Bortezomib; first compound 25 µM): 1.16
relative viability ([2]; first compound 0.04 µM): 0.278
relative viability ([2]; first compound 0.1265 µM): 0.234
relative viability ([2]; first compound 0.4 µM): 0.331
relative viability ([2]; first compound 1.265 µM): 0.271
relative viability ([2]; first compound 4 µM): 0.209

RERF-LC-KJ
relative viability (Mirin + Trametinib; first compound 0.25 µM): 0.897
relative viability (Mirin + Trametinib; first compound 0.7906 µM): 0.975
relative viability (Mirin + Trametinib; first compound 2.5 µM): 0.782
relative viability (Mirin + Trametinib; first compound 7.906 µM): 0.842
relative viability (Mirin + Trametinib; first compound 25 µM): 0.816
relative viability ([1]; first compound 0.04 µM): 0.88
relative viability ([1]; first compound 0.1265 µM): 0.746
relative viability ([1]; first compound 0.4 µM): 0.462
relative viability ([1]; first compound 1.265 µM): 0.43
relative viability ([1]; first compound 4 µM): 0.347
relative viability (Mirin + Bortezomib; first compound 0.25 µM): 1.22
relative viability (Mirin + Bortezomib; first compound 0.7906 µM): 1.25
relative viability (Mirin + Bortezomib; first compound 2.5 µM): 1.07
relative viability (Mirin + Bortezomib; first compound 7.906 µM): 1.18
relative viability (Mirin + Bortezomib; first compound 25 µM): 1.2
relative viability ([2]; first compound 0.04 µM): 0.638
relative viability ([2]; first compound 0.1265 µM): 0.627
relative viability ([2]; first compound 0.4 µM): 0.745
relative viability ([2]; first compound 1.265 µM): 0.577
relative viability ([2]; first compound 4 µM): 0.611

H3255
relative viability (Mirin + Trametinib; first compound 0.25 µM): 0.604
relative viability (Mirin + Trametinib; first compound 0.7906 µM): 0.752
relative viability (Mirin + Trametinib; first compound 2.5 µM): 0.557
relative viability (Mirin + Trametinib; first compound 7.906 µM): 0.412
relative viability (Mirin + Trametinib; first compound 25 µM): 0.566
relative viability ([1]; first compound 0.04 µM): 0.375
relative viability ([1]; first compound 0.1265 µM): 0.367
relative viability ([1]; first compound 0.4 µM): 0.331
relative viability ([1]; first compound 1.265 µM): 0.341
relative viability ([1]; first compound 4 µM): 0.291
relative viability (Mirin + Bortezomib; first compound 0.25 µM): 0.778
relative viability (Mirin + Bortezomib; first compound 0.7906 µM): 0.725
relative viability (Mirin + Bortezomib; first compound 2.5 µM): 0.837
relative viability (Mirin + Bortezomib; first compound 7.906 µM): 0.698
relative viability (Mirin + Bortezomib; first compound 25 µM): 0.769
relative viability ([2]; first compound 0.04 µM): 0.578
relative viability ([2]; first compound 0.1265 µM): 0.555
relative viability ([2]; first compound 0.4 µM): 0.594
relative viability ([2]; first compound 1.265 µM): 0.52
relative viability ([2]; first compound 4 µM): 0.55

EMC-BAC-2
relative viability (Mirin + Trametinib; first compound 0.25 µM): 0.934
relative viability (Mirin + Trametinib; first compound 0.7906 µM): 0.889
relative viability (Mirin + Trametinib; first compound 2.5 µM): 0.875
relative viability (Mirin + Trametinib; first compound 7.906 µM): 0.761
relative viability (Mirin + Trametinib; first compound 25 µM): 0.957
relative viability ([1]; first compound 0.04 µM): 0.305
relative viability ([1]; first compound 0.1265 µM): 0.244
relative viability ([1]; first compound 0.4 µM): 0.134
relative viability ([1]; first compound 1.265 µM): 0.161
relative viability ([1]; first compound 4 µM): 0.154
relative viability (Mirin + Bortezomib; first compound 0.25 µM): 1.11
relative viability (Mirin + Bortezomib; first compound 0.7906 µM): 1.08
relative viability (Mirin + Bortezomib; first compound 2.5 µM): 1.07
relative viability (Mirin + Bortezomib; first compound 7.906 µM): 1.05
relative viability (Mirin + Bortezomib; first compound 25 µM): 1.11
relative viability ([2]; first compound 0.1265 µM): 0.945
relative viability ([2]; first compound 0.4 µM): 0.998
relative viability ([2]; first compound 1.265 µM): 0.924
relative viability ([2]; first compound 4 µM): 1.05

NCI-H661
relative viability (Mirin + Trametinib; first compound 0.25 µM): 0.59
relative viability (Mirin + Trametinib; first compound 0.7906 µM): 0.722
relative viability (Mirin + Trametinib; first compound 2.5 µM): 0.628
relative viability (Mirin + Trametinib; first compound 7.906 µM): 0.482
relative viability (Mirin + Trametinib; first compound 25 µM): 0.575
relative viability ([1]; first compound 0.04 µM): 0.672
relative viability ([1]; first compound 0.1265 µM): 0.519
relative viability ([1]; first compound 0.4 µM): 0.593
relative viability ([1]; first compound 1.265 µM): 0.422
relative viability ([1]; first compound 4 µM): 0.426
relative viability (Mirin + Bortezomib; first compound 0.25 µM): 0.696
relative viability (Mirin + Bortezomib; first compound 0.7906 µM): 0.787
relative viability (Mirin + Bortezomib; first compound 2.5 µM): 0.836
relative viability (Mirin + Bortezomib; first compound 7.906 µM): 0.518
relative viability (Mirin + Bortezomib; first compound 25 µM): 0.527
relative viability ([2]; first compound 0.04 µM): 0.557
relative viability ([2]; first compound 0.1265 µM): 0.522
relative viability ([2]; first compound 0.4 µM): 0.524
relative viability ([2]; first compound 1.265 µM): 0.472
relative viability ([2]; first compound 4 µM): 0.55

NCI-H1355
relative viability (Mirin + Trametinib; first compound 0.25 µM): 0.457
relative viability (Mirin + Trametinib; first compound 0.7906 µM): 0.482
relative viability (Mirin + Trametinib; first compound 2.5 µM): 0.48
relative viability (Mirin + Trametinib; first compound 7.906 µM): 0.374
relative viability (Mirin + Trametinib; first compound 25 µM): 0.399
relative viability ([1]; first compound 0.04 µM): 0.755
relative viability ([1]; first compound 0.1265 µM): 0.712
relative viability ([1]; first compound 0.4 µM): 0.235
relative viability ([1]; first compound 1.265 µM): 0.312
relative viability ([1]; first compound 4 µM): 0.275
relative viability (Mirin + Bortezomib; first compound 0.25 µM): 1.3
relative viability (Mirin + Bortezomib; first compound 0.7906 µM): 1.19
relative viability (Mirin + Bortezomib; first compound 2.5 µM): 1.16
relative viability (Mirin + Bortezomib; first compound 7.906 µM): 1.23
relative viability (Mirin + Bortezomib; first compound 25 µM): 1.38
relative viability ([2]; first compound 0.04 µM): 0.326
relative viability ([2]; first compound 0.1265 µM): 0.388
relative viability ([2]; first compound 0.4 µM): 0.344
relative viability ([2]; first compound 1.265 µM): 0.339
relative viability ([2]; first compound 4 µM): 0.359

PC-14
relative viability (Mirin + Trametinib; first compound 0.25 µM): 0.788
relative viability (Mirin + Trametinib; first compound 0.7906 µM): 0.893
relative viability (Mirin + Trametinib; first compound 2.5 µM): 0.725
relative viability (Mirin + Trametinib; first compound 7.906 µM): 0.725
relative viability (Mirin + Trametinib; first compound 25 µM): 0.776
relative viability ([1]; first compound 0.04 µM): 0.221
relative viability ([1]; first compound 0.1265 µM): 0.173
relative viability ([1]; first compound 0.4 µM): 0.174
relative viability ([1]; first compound 1.265 µM): 0.158
relative viability ([1]; first compound 4 µM): 0.115
relative viability (Mirin + Bortezomib; first compound 0.25 µM): 0.895
relative viability (Mirin + Bortezomib; first compound 0.7906 µM): 0.852
relative viability (Mirin + Bortezomib; first compound 2.5 µM): 0.894
relative viability (Mirin + Bortezomib; first compound 7.906 µM): 1.06
relative viability (Mirin + Bortezomib; first compound 25 µM): 1.04
relative viability ([2]; first compound 0.04 µM): 0.209
relative viability ([2]; first compound 0.1265 µM): 0.159
relative viability ([2]; first compound 0.4 µM): 0.22
relative viability ([2]; first compound 1.265 µM): 0.205
relative viability ([2]; first compound 4 µM): 0.228

NCI-H1650
relative viability (Mirin + Trametinib; first compound 0.25 µM): 0.534
relative viability (Mirin + Trametinib; first compound 0.7906 µM): 0.544
relative viability (Mirin + Trametinib; first compound 2.5 µM): 0.579
relative viability (Mirin + Trametinib; first compound 7.906 µM): 0.551
relative viability (Mirin + Trametinib; first compound 25 µM): 0.62
relative viability ([1]; first compound 0.04 µM): 0.324
relative viability ([1]; first compound 0.1265 µM): 0.36
relative viability ([1]; first compound 0.4 µM): 0.371
relative viability ([1]; first compound 1.265 µM): 0.398
relative viability ([1]; first compound 4 µM): 0.363
relative viability (Mirin + Bortezomib; first compound 0.25 µM): 0.196
relative viability (Mirin + Bortezomib; first compound 0.7906 µM): 0.2
relative viability (Mirin + Bortezomib; first compound 2.5 µM): 0.216
relative viability (Mirin + Bortezomib; first compound 7.906 µM): 0.208
relative viability (Mirin + Bortezomib; first compound 25 µM): 0.191
relative viability ([2]; first compound 0.04 µM): 0.372
relative viability ([2]; first compound 0.1265 µM): 0.419
relative viability ([2]; first compound 0.4 µM): 0.377
relative viability ([2]; first compound 1.265 µM): 0.417
relative viability ([2]; first compound 4 µM): 0.536
